Laboratory results taken from patent US8765779B2, “Tricyclic derivatives and their pharmaceutical use and compositions” (Cephalon, Inc., priority 2009, dated 2014).

Molecular target: T1, human 5-HT6 receptor (Homo sapiens, UniProt P50406)
T1 construct: host or cells: CHO-K1 cells, stably transfected; membranes prepared in house
Assay: Human 5-HT6 Receptor Binding Assay ([3H]LSD displacement, scintillation beads)
Conditions: membranes of CHO-K1 cells with recombinant human 5-HT6, 4 nM [3H]LSD; Table 1, class symbols; read-out: h5-HT6 (Ki)
Procedure: Human 5-HT6 Receptor Binding Assay
Membranes were prepared from CHO—K1 cells stably transfected with the human 5-HT6 receptor (Euroscreen; ES-316-C). The cells were grown in Gibco Advanced DMEM-F12 (Cat#12634010) containing 2% dialyzed FBS (Hyclone Cat#SH30079.03). The cells were harvested in phosphate buffered saline (PBS) containing 0.1 mM EDTA and pelleted by centrifugation (1000×g), the supernatant was discarded and the pellets were stored at −80° C. prior to membrane preparation. Membranes were prepared as previously described (J Bio Chem. 1992, 267 (14) 9844-51). Briefly, frozen cell pellet was resuspended in a lysis buffer containing 5 mM Tris-HCl (pH 7.5), 5 mM EDTA and 1 complete EDTA-free protease inhibitor tablet (Roche Applied Science, Indianapolis, Ind.) per 50 mL buffer, and homogenized with a tissue homogenizer. The cell lysate was then centrifuged at 40,000×g for 30 min at 4° C. to collect the membranes. The membrane pellets were washed in membrane buffer (50 mM Tris-HCl (pH 7.5), 0.6 mM EDTA, 5 mM MgCl2, 1 complete EDTA-free protease inhibitor tablet per 50 mL buffer) using a tissue homogenizer. The membranes were centrifuged at 40,000×g for 30 min at 4° C. and the pellets were resuspended in membrane buffer containing 250 mM sucrose, and protein concentration was determined using the Coomassie Plus kit (Pierce Biotechnology, Rockford, Ill.).
Membranes prepared from cells expressing recombinant human 5-HT6 receptor (h5-HT6) were resuspended in assay buffer containing 50 mM Tris HCl, (pH7.4), 4 mM CaCl2, 10 μg/mL saponin, and 0.1% (w/v) ascorbic acid. Membranes were preincubated using 1.75 μg membrane protein and 0.25 mg FlashBlue scintillation beads (PerkinElmer catalogue #FB001) per well at 4° for 30 min. […] Test compounds or assay controls for total and non-specific binding were diluted in DMSO as 100× solutions and serially diluted by half log concentrations on a Perkin Elmer JANUS Automated Workstation. Serotonin (10 μM final concentration) was used to determine non-specific binding in the assay. Plates were read using the Microbeta Trilux 1450 LSC and luminescence counter. Data were analyzed by nonlinear […] using the dose-response equation (variable slope) to calculate IC50 in XLfit4 (ID Business Solutions Inc.): y=(Bottom+((Top−Bottom)/(1+((IC50/x)^Hill slope))))
Ki value was then calculated according to the Cheng-Prusoff method using the equation below (Cheng and Prusoff, 1973): Ki,app=IC50/(1+[radioligand]/Kd))

T1 sequence (P50406 whole entry): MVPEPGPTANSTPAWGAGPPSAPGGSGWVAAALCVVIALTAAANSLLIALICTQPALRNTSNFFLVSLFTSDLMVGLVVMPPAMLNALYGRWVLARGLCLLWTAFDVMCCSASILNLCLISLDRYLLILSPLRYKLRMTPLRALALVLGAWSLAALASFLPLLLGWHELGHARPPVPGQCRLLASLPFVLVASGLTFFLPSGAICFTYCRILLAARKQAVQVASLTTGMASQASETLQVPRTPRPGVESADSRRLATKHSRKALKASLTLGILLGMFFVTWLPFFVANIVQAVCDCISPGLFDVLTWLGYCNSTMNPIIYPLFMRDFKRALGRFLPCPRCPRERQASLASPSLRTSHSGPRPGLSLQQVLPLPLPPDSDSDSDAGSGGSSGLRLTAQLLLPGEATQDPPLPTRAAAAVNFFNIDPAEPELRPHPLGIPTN

Row | Ki | SMILES
1 | < 500 nM | CC1(C)CNC2(CCOC2)c2oc3cc(S(=O)(=O)c4cccc(F)c4)ccc3c21 (racemic) [Example 46, 7-[(3-fluorophenyl)sulfonyl]-4,4-dimethyl-3,4,4′,5′-tetrahydro-2H-spiro[1-benzofuro[2,3-c]pyridine-1,3′-furan]]
2 | < 500 nM | CC1(C)CNC2(CCOCC2)c2oc3cc([S+]([O-])c4cccc(F)c4)ccc3c21 (racemic) [Example 47, 7-[(3-fluorophenyl)sulfinyl]-4,4-dimethyl-2′,3,3′,4,5′,6′-hexahydro-2H-spiro[1-benzofuro[2,3-c]pyridine-1,4′-pyran]]
3 | < 500 nM | COCC1(C)NCCc2c1oc1cc(S(=O)(=O)c3cccc(F)c3)ccc21 (racemic) [Example 49, 7-[(3-fluorophenyl)sulfonyl]-1-(methoxymethyl)-1-methyl-1,2,3,4-tetrahydro[1]benzofuro[2,3-c]pyridine]
4 | < 500 nM | CC(=O)NCC1NCCc2c1oc1cc(S(=O)(=O)c3cccc(F)c3)ccc21 (racemic) [Example 535, N-({7-[(3-fluorophenyl)sulfonyl]-1,2,3,4-tetrahydro[1]benzofuro[2,3-c]pyridin-1-yl}methyl)acetamide]
5 | < 500 nM | CC(=O)NCCC1NCCc2c1oc1cc(S(=O)(=O)c3cccc(F)c3)ccc21 (racemic) [Example 536, N-(2-{7-[(3-fluorophenyl)sulfonyl]-1,2,3,4-tetrahydro[1]benzofuro[2,3-c]pyridin-1-yl}ethyl)acetamide]
6 | < 500 nM | CC(=O)N(C)CC1NCCc2c1oc1cc(S(=O)(=O)c3cccc(F)c3)ccc21 (racemic) [Example 537, N-({7-[(3-fluorophenyl)sulfonyl]-1,2,3,4-tetrahydro[1]benzofuro[2,3-c]pyridin-1-yl}methyl)-N-methylacetamide]
7 | < 500 nM | CC(=O)N(C)CCC1NCCc2c1oc1cc(S(=O)(=O)c3cccc(F)c3)ccc21 (racemic) [Example 538, N-(2-{7-[(3-fluorophenyl)sulfonyl]-1,2,3,4-tetrahydro[1]benzofuro[2,3-c]pyridin-1-yl}ethyl)-N-methylacetamide]
8 | < 500 nM | CC(=O)NCC1NCCc2c1oc1cc(S(=O)(=O)c3cccc(Cl)c3)ccc21 (racemic) [Example 539, N-({7-[(3-chlorophenyl)sulfonyl]-1,2,3,4-tetrahydro[1]benzofuro[2,3-c]pyridin-1-yl}methyl)acetamide]
9 | < 500 nM | CC(=O)NCCC1NCCc2c1oc1cc(S(=O)(=O)c3cccc(Cl)c3)ccc21 (racemic) [Example 540, N-(2-{7-[(3-chlorophenyl)sulfonyl]-1,2,3,4-tetrahydro[1]benzofuro[2,3-c]pyridin-1-yl}ethyl)acetamide]
10 | < 500 nM | CC(=O)N(C)CC1NCCc2c1oc1cc(S(=O)(=O)c3cccc(Cl)c3)ccc21 (racemic) [Example 541, N-({7-[(3-chlorophenyl)sulfonyl]-1,2,3,4-tetrahydro[1]benzofuro[2,3-c]pyridin-1-yl}methyl)-N-methylacetamide]
11 | < 500 nM | CC(=O)N(C)CCC1NCCc2c1oc1cc(S(=O)(=O)c3cccc(Cl)c3)ccc21 (racemic) [Example 542, N-(2-{7-[(3-chlorophenyl)sulfonyl]-1,2,3,4-tetrahydro[1]benzofuro[2,3-c]pyridin-1-yl}ethyl)-N-methylacetamide]
12 | < 500 nM | CN(C)C(=O)CC1(C)NCCc2c1oc1cc(S(=O)(=O)c3cccc(F)c3)ccc21 (single isomer, unassigned) [Example 50, 2-{7-[(3-fluorophenyl)sulfonyl]-1-methyl-1,2,3,4-tetrahydro[1]benzofuro[2,3-c]pyridin-1-yl}-N,N-dimethylacetamide]

Further lines, the compound ahead of its results:

Row | SMILES | Ki
13 | CC1(C2CC2)NCCc2c1oc1cc(S(=O)(=O)c3cccc(F)c3)ccc21 (racemic) [Example 29, 1-cyclopropyl-7-[(3-fluorophenyl)sulfonyl]-1-methyl-1,2,3,4-tetrahydro[1]benzofuro[2,3-c]pyridine] | < 500 nM
14 | O=S(=O)(c1cccc(F)c1)c1ccc2c3c(oc2c1)C1(CCOC1)NCC3 (racemic) [Example 30, 7-[(3-fluorophenyl)sulfonyl]-3,4,4′,5′-tetrahydro-2H-spiro[1-benzofuro[2,3-c]pyridine-1,3′-furan]] | < 500 nM
15 | CCOCC1NCCc2c1oc1cc(S(=O)(=O)c3cccc(F)c3)ccc21 (racemic) [Example 33, 1-(ethoxymethyl)-7-[(3-fluorophenyl)sulfonyl]-1,2,3,4-tetrahydro[1]benzofuro[2,3-c]pyridine] | < 500 nM
16 | CC(C)CC1(C)NCCc2c1oc1cc(S(=O)(=O)c3cccc(F)c3)ccc21 (racemic) [Example 36, 7-[(3-fluorophenyl)sulfonyl]-1-methyl-1-(2-methylpropyl)-1,2,3,4-tetrahydro[1]benzofuro[2,3-c]pyridine] | < 500 nM
17 | CC1(C(F)(F)F)NCCc2c1oc1cc(S(=O)(=O)c3cccc(F)c3)ccc21 (racemic) [Example 37, 7-[(3-fluorophenyl)sulfonyl]-1-methyl-1-(trifluoromethyl)-1,2,3,4-tetrahydro[1]benzofuro[2,3-c]pyridine] | < 500 nM
18 | CN(C)C(=O)CC1(C)NCCc2c1oc1cc(S(=O)(=O)c3cccc(F)c3)ccc21 (racemic) [Example 40, 2-{7-[(3-fluorophenyl)sulfonyl]-1-methyl-1,2,3,4-tetrahydro[1]benzofuro[2,3-c]pyridin-1-yl}-N,N-dimethylacetamide] | < 500 nM
19 | CC1(C)CNC(C2CCOCC2)c2oc3cc(S(=O)(=O)c4cccc(F)c4)ccc3c21 (racemic) [Example 45, 7-[(3-fluorophenyl)sulfonyl]-4,4-dimethyl-1-(tetrahydro-2H-pyran-4-yl)-1,2,3,4-tetrahydro[1]benzofuro[2,3-c]pyridine] | < 500 nM
20 | CC(C)Oc1cccc(S(=O)(=O)c2ccc3c(c2)OC2CNCCC32C)c1 (single isomer, unassigned) [Example 20, 4a-methyl-7-{[3-(propan-2-yloxy)phenyl]sulfonyl}-1,2,3,4,4a,9a-hexahydro[1]benzofuro[2,3-c]pyridine] | < 500 nM
21 | CC(C)Oc1cccc(S(=O)(=O)c2ccc3c(c2)OC2CNCCC32C)c1 (single isomer, unassigned) [Example 21, 4a-methyl-7-{[3-(propan-2-yloxy)phenyl]sulfonyl}-1,2,3,4,4a,9a-hexahydro[1]benzofuro[2,3-c]pyridine] | < 500 nM
22 | CC(C)Oc1cccc(S(=O)(=O)c2ccc3c4c(oc3c2)C2(CCOC2)NCC4)c1 (single isomer, unassigned) [Example 31, 7-{[3-(propan-2-yloxy)phenyl]sulfonyl}-3,4,4′,5′-tetrahydro-2H-spiro[1-benzofuro[2,3-c]pyridine-1,3′-furan]] | < 500 nM
23 | CC(C)Oc1cccc(S(=O)(=O)c2ccc3c4c(oc3c2)C2(CCOC2)NCC4)c1 (single isomer, unassigned) [Example 32, 7-{[3-(propan-2-yloxy)phenyl]sulfonyl}-3,4,4′,5′-tetrahydro-2H-spiro[1-benzofuro[2,3-c]pyridine-1,3′-furan]] | < 500 nM
24 | CC(C)Oc1cccc(S(=O)(=O)c2ccc3c4c(oc3c2)C(C)(C(F)F)NCC4)c1 (single isomer, unassigned) [Example 34, 1-(difluoromethyl)-1-methyl-7-{[3-(propan-2-yloxy)phenyl]sulfonyl}-1,2,3,4-tetrahydro[1]benzofuro[2,3-c]pyridine] | < 500 nM
